Experimental data as given in ChEMBL document CHEMBL1130515, “4-Heterocyclyl tetrahydropyridines as selective ligands for the human dopamine D4 receptor” (Bioorg Med Chem Lett, 1997).

How the values were obtained:
D(4) dopamine receptor = biological target: T1, D(4) dopamine receptor (Homo sapiens, UniProt P21917); assay: Displacement of [3H]spiperone from human dopamine receptor subtype hD4 expressed in HEK293 cells; format: cell-based
T1 sequence (P21917 whole entry): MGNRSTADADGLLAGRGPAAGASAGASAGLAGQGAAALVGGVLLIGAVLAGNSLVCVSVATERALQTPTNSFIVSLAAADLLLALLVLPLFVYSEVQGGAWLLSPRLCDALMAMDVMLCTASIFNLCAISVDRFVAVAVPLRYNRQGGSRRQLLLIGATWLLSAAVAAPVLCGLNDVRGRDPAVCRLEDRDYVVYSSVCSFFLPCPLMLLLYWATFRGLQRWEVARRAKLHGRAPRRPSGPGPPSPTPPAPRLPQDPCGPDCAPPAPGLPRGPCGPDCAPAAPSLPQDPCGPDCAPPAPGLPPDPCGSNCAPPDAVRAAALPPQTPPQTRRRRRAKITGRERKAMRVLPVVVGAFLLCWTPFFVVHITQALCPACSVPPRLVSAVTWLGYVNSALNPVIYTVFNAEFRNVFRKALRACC

[1] = biological target: Dopamine receptors; D2 & D4 (Homo sapiens) (UniProt P14416+P21917); assay: Ratio of dopamine D2/D4 receptor binding; format: protein assay
Dopamine receptors; D2 & D4 (Homo sapiens), sequence (P14416 whole entry, looked up, one chain of several): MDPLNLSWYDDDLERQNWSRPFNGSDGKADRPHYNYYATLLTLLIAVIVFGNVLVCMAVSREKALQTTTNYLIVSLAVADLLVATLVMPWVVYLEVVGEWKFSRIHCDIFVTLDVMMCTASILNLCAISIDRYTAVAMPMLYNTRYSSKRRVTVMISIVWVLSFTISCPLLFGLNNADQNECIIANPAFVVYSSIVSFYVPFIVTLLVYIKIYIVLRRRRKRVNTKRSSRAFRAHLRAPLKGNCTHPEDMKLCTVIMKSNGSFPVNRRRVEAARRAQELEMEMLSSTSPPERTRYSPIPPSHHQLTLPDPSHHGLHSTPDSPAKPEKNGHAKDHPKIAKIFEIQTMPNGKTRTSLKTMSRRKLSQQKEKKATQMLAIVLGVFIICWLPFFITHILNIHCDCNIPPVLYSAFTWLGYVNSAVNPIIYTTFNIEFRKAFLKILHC

D(2) dopamine receptor = D(2) dopamine receptor (Homo sapiens, UniProt P14416); assay: Displacement of [3H]spiperone from human dopamine D2 receptor in CHO cells; format: cell-based
D(2) dopamine receptor, sequence (P14416 whole entry): as the sequence (P14416 whole entry, looked up, one chain of several) above

D(3) dopamine receptor = D(3) dopamine receptor (Homo sapiens, UniProt P35462); assay: Displacement of [3H]spiperone from human dopamine receptor subtype hD3 expressed in CHO cells; format: cell-based
D(3) dopamine receptor, sequence (P35462 whole entry): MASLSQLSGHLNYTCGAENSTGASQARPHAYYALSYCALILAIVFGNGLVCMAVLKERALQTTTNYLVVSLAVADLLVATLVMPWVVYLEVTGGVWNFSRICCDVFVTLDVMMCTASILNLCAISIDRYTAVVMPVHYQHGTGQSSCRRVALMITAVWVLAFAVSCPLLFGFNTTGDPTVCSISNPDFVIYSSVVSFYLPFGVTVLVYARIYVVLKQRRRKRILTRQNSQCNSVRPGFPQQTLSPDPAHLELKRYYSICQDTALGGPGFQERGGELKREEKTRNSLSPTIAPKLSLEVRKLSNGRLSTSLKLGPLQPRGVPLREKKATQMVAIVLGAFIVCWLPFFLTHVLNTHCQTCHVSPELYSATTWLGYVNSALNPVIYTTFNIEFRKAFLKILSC

Rhesus monkey = assay: Volume of distribution (Vss) was evaluated in rhesus monkey at an intravenous dose of 1 mg/kg and peroral dose of 1 mg/kg; format: ADME, organism-based, Macaca mulatta; details: in vivo
Rattus norvegicus [2] = assay: Volume of distribution (Vss) was evaluated in rat at an intravenous dose of 3 mg/kg and peroral dose of 5 mg/kg; format: ADME, organism-based; details: in vivo
[3] = Maximum concentration in plasma (Cmax) was evaluated in rhesus monkey at an intravenous dose of 1 mg/kg and peroral dose of 1 mg/kg; format: ADME, organism-based, Macaca mulatta; details: po
[4] = Bioavailability was evaluated in rhesus monkey at an intravenous dose of 1 mg/kg and peroral dose of 1 mg/kg; format: ADME, organism-based, Macaca mulatta; details: in vivo, po, read-out: Bioavailabiility
[5] = Maximum concentration in plasma (Cmax) was evaluated in rat at an intravenous dose of 3 mg/kg and peroral dose of 5 mg/kg; format: ADME, organism-based; details: po
Rattus norvegicus [6] = assay: Plasma clearance was evaluated in rat at an intravenous dose of 3 mg/kg and peroral dose of 5 mg/kg; format: ADME, organism-based; details: in vivo
[7] = Bioavailability was evaluated in rat at an intravenous dose of 3 mg/kg and peroral dose of 5 mg/kg; format: ADME, organism-based; details: in vivo, po, read-out: Bioavailabiility
[8] = Half life was evaluated in rhesus monkey at an intravenous dose of 1 mg/kg and peroral dose of 1 mg/kg; format: ADME, organism-based, Macaca mulatta; details: in vivo
[9] = Half life was evaluated in rat at an intravenous dose of 3 mg/kg and peroral dose of 5 mg/kg; format: ADME, organism-based; details: in vivo

| Compound | Ki (D(4) dopamine receptor) [nM] | Ratio [1] | Ki (D(2) dopamine receptor) [nM] | Ki (D(3) dopamine receptor) [nM] | Vss (Rhesus monkey) [kg⁻¹] | Vss (Rattus norvegicus [2]) [kg⁻¹] | Cmax [3] [ng/mL] | bioavailability [4] [%] | Cmax [5] [ng/mL] | Plasma clearance (Rattus norvegicus [6]) [Clp] | bioavailability [7] [%] | half-life [8] [h] | half-life [9] [h] |
| --- | --- | --- | --- | --- | --- | --- | --- | --- | --- | --- | --- | --- | --- |
| Clc1ccc2sc(C3=CCN(Cc4ccccc4)CC3)nc2c1 | 44 | > 36 | > 1600 | 1800 | – | – | – | – | – | – | – | – | – |
| Clc1ccc(CN2CC=C(c3nc4ccccc4s3)CC2)cc1 | 1.3 | > 1000 | > 1600 | > 4400 | 2.5 | 3.81 | 23 | 9 | 97 | 39 | 17 | 4.7 | 3.1 |
| C1=C(c2nc3ccccc3o2)CCN(Cc2ccccc2)C1 | 97 | 3 | 240 | 4500 | – | – | – | – | – | – | – | – | – |
| Clc1ccccc1CN1CC=C(c2nc3ccccc3s2)CC1 | 87 | > 23 | > 2000 | 1400 | – | – | – | – | – | – | – | – | – |
| Clc1ccc2oc(C3=CCN(Cc4ccccc4)CC3)nc2c1 | 17 | > 100 | > 1800 | 1600 | – | – | – | – | – | – | – | – | – |
| C1=C(c2nc3ccccc3s2)CCN(Cc2ccccc2)C1 | 5 | 120 | 600 | 560 | – | – | – | – | – | – | – | – | – |
| Clc1ccc(CN2CC=C(c3nc4ccccc4[nH]3)CC2)cc1 | 68 | 10 | 670 | 1600 | – | – | – | – | – | – | – | – | – |
| Clc1ccc(CN2CC=C(c3nc4cc(Cl)ccc4[nH]3)CC2)cc1 | 10 | 33 | 330 | 900 | – | – | – | – | – | – | – | – | – |
| Clc1ccc(CN2CC=C(c3nc4cc(Cl)ccc4s3)CC2)cc1 | 21 | 97 | 2000 | 660 | – | – | – | – | – | – | – | – | – |
| Clc1cccc(CN2CC=C(c3nc4ccccc4s3)CC2)c1 | 8.1 | 42 | 340 | 630 | – | – | – | – | – | – | – | – | – |
| Clc1ccc(CN2CC=C(c3nc4cc(Cl)ccc4o3)CC2)cc1 | 8.4 | > 200 | > 1700 | > 4500 | – | – | – | – | – | – | – | – | – |
| Clc1ccc2[nH]c(C3=CCN(Cc4ccccc4)CC3)nc2c1 | 26 | 23 | 590 | 2900 | – | – | – | – | – | – | – | – | – |
| C1=C(c2nc3ccccc3[nH]2)CCN(Cc2ccccc2)C1 | 94 | 15 | 1400 | 4400 | – | – | – | – | – | – | – | – | – |
